Measured values published in ChEMBL document CHEMBL3751665, “Identification of a novel NAMPT inhibitor by combinatorial click chemistry and chemical refinement” (Medchemcomm, 2015).

What was measured:
[1] = test system: SH-SY5Y; assay: Cytotoxicity against human SH-SY5Y cells assessed as cell viability at 10 uM after 48 hrs by MTT assay relative to control; format: functional; settings: read-out: Activity
[2] = test system: SH-SY5Y; assay: Cytotoxicity against human SH-SY5Y cells assessed as cell viability at 1 uM after 48 hrs by MTT assay relative to control; format: functional; settings: read-out: Activity
[3] = test system: SH-SY5Y; assay: Cytotoxicity against human SH-SY5Y cells assessed as reduction in cell viability after 48 hrs by MTT assay; format: functional, cell-based
[4] = target: Nicotinamide phosphoribosyltransferase (Homo sapiens, UniProt P43490); assay: Inhibition of NAMPT in human SH-SY5Y cells assessed as NAD depletion incubated for 16 hrs; format: cell-based
Chain of Nicotinamide phosphoribosyltransferase (Homo sapiens, UniProt P43490) (P43490 whole entry): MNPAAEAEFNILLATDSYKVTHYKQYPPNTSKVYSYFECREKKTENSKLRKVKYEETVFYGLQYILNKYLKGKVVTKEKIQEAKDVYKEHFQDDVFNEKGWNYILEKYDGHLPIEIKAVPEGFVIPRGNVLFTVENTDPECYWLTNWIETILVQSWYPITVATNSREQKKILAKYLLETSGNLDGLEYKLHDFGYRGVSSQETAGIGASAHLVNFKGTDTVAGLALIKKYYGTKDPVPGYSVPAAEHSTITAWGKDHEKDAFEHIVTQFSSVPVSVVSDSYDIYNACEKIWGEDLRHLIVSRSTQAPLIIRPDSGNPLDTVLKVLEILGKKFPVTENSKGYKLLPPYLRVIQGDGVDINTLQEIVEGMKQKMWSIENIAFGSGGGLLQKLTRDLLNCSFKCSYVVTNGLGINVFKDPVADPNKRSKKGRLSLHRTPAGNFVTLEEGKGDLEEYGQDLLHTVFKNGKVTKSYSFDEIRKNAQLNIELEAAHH

[5] = target: Nicotinamide phosphoribosyltransferase (Mus musculus, UniProt Q99KQ4); assay: Inhibition of recombinant mouse NAMPT expressed in bacteria assessed as reduction in NADH formation using [14C]NAM as substrate measured for 1 hr by coupled enzymatic assay
Chain of Nicotinamide phosphoribosyltransferase (Mus musculus, UniProt Q99KQ4) (Q99KQ4 whole entry): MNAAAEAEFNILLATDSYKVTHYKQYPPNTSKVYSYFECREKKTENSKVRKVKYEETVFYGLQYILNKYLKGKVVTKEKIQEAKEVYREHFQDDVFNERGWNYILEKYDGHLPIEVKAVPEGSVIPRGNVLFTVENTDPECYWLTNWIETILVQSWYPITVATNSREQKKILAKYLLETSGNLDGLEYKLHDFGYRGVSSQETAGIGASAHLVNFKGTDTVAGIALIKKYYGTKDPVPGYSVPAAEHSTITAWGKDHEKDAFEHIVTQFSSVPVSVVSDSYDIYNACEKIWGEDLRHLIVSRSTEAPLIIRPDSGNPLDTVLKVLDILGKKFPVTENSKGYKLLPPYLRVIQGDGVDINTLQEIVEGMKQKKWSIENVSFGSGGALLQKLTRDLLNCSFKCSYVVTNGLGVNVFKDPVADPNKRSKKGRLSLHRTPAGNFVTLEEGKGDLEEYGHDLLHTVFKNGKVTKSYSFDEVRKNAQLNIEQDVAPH

[6] = test system: SH-SY5Y; assay: Cytotoxicity against human SH-SY5Y cells assessed as cell viability at 100 nM after 48 hrs by MTT assay relative to control; format: functional; settings: read-out: Activity

Structure (SMILES)	viability at 10 µM [1] [%]	viability at 1 µM [2] [%]	other results
O=C(CCCCCCCc1cn(-c2ccccc2Cc2ccccc2)nn1)NCc1cccnc1	94		
O=C(CCCCCc1cn(-c2ccccc2-c2ccccc2)nn1)NCCc1cccnc1	25	29.2	EC50 [3]: 680 nM; IC50 [4]: 7.6 nM; IC50 [5]: 170 nM
O=C(CCCCCCCc1cn(-c2ccccc2CO)nn1)NCc1cccnc1	96		
O=C(CCCCCc1cn(Cc2ccc(-c3ccccc3)cc2)nn1)NCCc1ccncc1	100		
O=C(/C=C/c1cccnc1)NCCCCC1CCN(C(=O)c2ccccc2)CC1 [DAPORINAD]			EC50 [3]: 3.2 nM; IC50 [5]: 61 nM
O=C(CCCCCCCCc1cn(-c2cnc3ccccc3c2)nn1)Nc1ccncc1	53	104	
O=C(CCCCCCc1cn(-c2ccccc2-c2ccccc2)nn1)NCc1cccnc1	47	98	
O=C(/C=C/c1cccnc1)NCCCCCc1cn(-c2ccccc2-c2ccccc2)nn1		32	viability at 0.1 µM [6]: 49%; EC50 [3]: 20 nM; IC50 [4]: 0.0509 nM; IC50 [5]: 114 nM
O=C(CCCCCCCCc1cn(-c2ccc(N3CCOCC3)cc2)nn1)Nc1ccncc1	28	93	
O=C(CCCCCCCc1cn(-c2ccccc2-c2ccccc2)nn1)Nc1cccnc1	111		
O=C(CCCCCCCCc1cn(-c2ccc(N3CCOCC3)cc2)nn1)NCc1cccnc1	74	100	
O=C(CCCCCCCCc1cn(-c2cnc3ccccc3c2)nn1)NCc1cccnc1	29	102	
CNCC(=O)N(CCn1cc(CCCCCCCC(=O)NCCc2cccnc2)nn1)Cc1ccccc1	109		
O=C(CCCCCCCc1cn(-c2ccccc2-c2ccccc2)nn1)Nc1ccncc1	32	82	
O=C(CCCCCCCc1cn(-c2ccccc2Cc2ccccc2)nn1)NCCc1ccncc1	99		
O=C(CCc1cccnc1)NCCCCCc1cn(-c2ccccc2-c2ccccc2)nn1		54	viability at 0.1 µM [6]: 112%
O=C(CCCCCCCc1cn(-c2ccc(N3CCOCC3)cc2)nn1)Nc1ccncc1	103		
O=C(CCCCCc1cn(-c2ccccc2-c2ccccc2)nn1)NCc1cccnc1	12.5	13.4	EC50 [3]: 456 nM; IC50 [4]: 1.1 nM; IC50 [5]: 267 nM
O=C(Cc1cccnc1)NCCCCCc1cn(-c2ccccc2-c2ccccc2)nn1		99	viability at 0.1 µM [6]: 106%
O=C(CCCCCCCc1cn(-c2ccc(CN3CCOCC3)cc2)nn1)Nc1ccncc1	125		
O=C(CCCCCCCc1cn(-c2ccccc2Cc2ccccc2)nn1)NCCc1cccnc1	101		
